Laboratory results as given in patent US11149043B2 (Calico Life Sciences LLC, priority 2018, dated 2021).
Converted amounts (≈) assume the structure as drawn. Structures can show the parent of a compound that is named as a salt.

Test: Solubility assay (high throughput 96-well plate, pH 7.4 phosphate buffer)
Type: physicochemical
Conditions: aqueous buffer, thermodynamic from solid, shaken two days at room temperature, UV-UPLC
Experimental: Solubility measurements were performed using a high throughput 96-well plate based assay. For this, 0.2 mg of sample compound was weighed and added to a sample plate in triplicate and 650 μL of pH 7.4 phosphate buffer was added. The sample plate was capped, allowed to shake on a plate shaker for two days at room temperature, and then centrifuged (2000 rpm, 10 minutes) to settle undissolved solids. Approximately 600 μL of the aqueous supernatant slurry from each sample plate was transferred to a filter plate mounted on top of a receiver plate. Vacuum was applied to collect the filtrate. Appropriate dilutions were made in 50/50 methanol/water and quantification for concentration was performed against known standards by UV-UPLC. Some preferred compounds of the invention have greater solubility than the parent compound (P), N,N′-[(2S)-2-hydroxybicyclo[2.2.2]octane-1,4-diyl]bis[2-(4-chloro-3-fluorophenoxy)acetamide].

Row | Compound | solubility at 2 days [µM]
1 | CC(=O)O[C@H]1CC2(NC(=O)COc3ccc(Cl)c(F)c3)CCC1(NC(=O)COc1ccc(Cl)c(F)c1)CC2 (single isomer, unassigned) [Compound 100] | < 0.82
2 | N[C@@H](CC(=O)O[C@H]1CC2(NC(=O)COc3ccc(Cl)c(F)c3)CCC1(NC(=O)COc1ccc(Cl)c(F)c1)CC2)C(=O)O [Compound 102, (2S)-2-amino-4-({(2S)-1,4-bis[2-(4-chloro-3-fluorophenoxy)acetamido]bicyclo[2.2.2]octan-2-yl}oxy)-4-oxobutanoic acid] | 59 (≈ 38 µg/mL)
3 | O=C(COc1ccc(Cl)c(F)c1)NC12CCC(NC(=O)COc3ccc(Cl)c(F)c3)(CC1)[C@@H](OC(=O)Cc1ccccc1OP(=O)(O)O)C2 [Compound 115] | 936 (≈ 696 µg/mL)
4 | CN(C(=O)O[C@H]1CC2(NC(=O)COc3ccc(Cl)c(F)c3)CCC1(NC(=O)COc1ccc(Cl)c(F)c1)CC2)c1ncccc1COP(=O)(O)O [Compound 116, (2S)-1,4-bis[2-(4-chloro-3-fluorophenoxy)acetamido]bicyclo[2.2.2]octan-2-yl methyl{3-[(phosphonooxy)methyl]pyridin-2-yl}carbamate] | 903 (≈ 698 µg/mL)
5 | O=C(COc1ccc(Cl)c(F)c1)NC12CCC(NC(=O)COc3ccc(Cl)c(F)c3)(CC1)[C@@H](OS(=O)(=O)O)C2 [Compound 125, (2S)-1,4-bis[2-(4-chloro-3-fluorophenoxy)acetamido]bicyclo[2.2.2]octan-2-yl hydrogen sulfate] | 152

Other lines, results leading:

Row | solubility at 2 days [µM] | Compound
6 | 598 (≈ 416 µg/mL) | O=C(COc1ccc(Cl)c(F)c1)NC12CCC(NC(=O)COc3ccc(Cl)c(F)c3)(CC1)[C@@H](OC(=O)NCCOP(=O)(O)O)C2 [Compound 117]
7 | 812 (≈ 565 µg/mL) | O=C(COc1ccc(Cl)c(F)c1)NC12CCC(NC(=O)COc3ccc(Cl)c(F)c3)(CC1)[C@@H](OC(=O)CCCOP(=O)(O)O)C2 [Compound 120, (2S)-1,4-bis[2-(4-chloro-3-fluorophenoxy)acetamido]bicyclo[2.2.2]octan-2-yl 4-(phosphonooxy)butanoate]
8 | > 1000 | O=C(COc1ccc(Cl)c(F)c1)NC12CCC(NC(=O)COc3ccc(Cl)c(F)c3)(CC1)[C@@H](OC(=O)OCCOP(=O)(O)O)C2 [Compound 121, (2S)-1,4-bis[2-(4-chloro-3-fluorophenoxy)acetamido]bicyclo[2.2.2]octan-2-yl 2-(phosphonooxy)ethyl carbonate]
9 | 317 (≈ 229 µg/mL) | CC(C)(COP(=O)(O)O)CC(=O)O[C@H]1CC2(NC(=O)COc3ccc(Cl)c(F)c3)CCC1(NC(=O)COc1ccc(Cl)c(F)c1)CC2 [Compound 122, (2S)-1,4-bis[2-(4-chloro-3-fluorophenoxy)acetamido]bicyclo[2.2.2]octan-2-yl 3,3-dimethyl-4-(phosphonooxy)butanoate]
10 | 645 (≈ 458 µg/mL) | O=C(COc1ccc(Cl)c(F)c1)NC12CCC(NC(=O)COc3ccc(Cl)c(F)c3)(CC1)[C@@H](OC(=O)CCCCOP(=O)(O)O)C2 [Compound 127, (2S)-1,4-bis[2-(4-chloro-3-fluorophenoxy)acetamido]bicyclo[2.2.2]octan-2-yl 5-(phosphonooxy)pentanoate]
11 | > 1000 | O=C(COc1ccc(Cl)c(F)c1)NC12CCC(NC(=O)COc3ccc(Cl)c(F)c3)(CC1)[C@@H](OCOP(=O)(O)O)C2 [Compound 131, ({(2S)-1,4-bis[2-(4-chloro-3-fluorophenoxy)acetamido]bicyclo[2.2.2]octan-2-yl}oxy)methyl dihydrogen phosphate]
